Test results reported in article PMC10953372 (2023).

Legend:
[1] = tested on: Neomycin-bindender Riboschalter (2FA-markiert) (RNA, riboswitch, 2-fluoroadenine at 16, 17 and 24) GGCUGCUUGUCCUUUAAUGGUCCAGCC; assay: 19F NMR titration and CEST; conditions: 303 K; 215-1200 µM samples, 1 to 1.5 equivalents of ligand
[2] = tested on: Neomycin-bindender Riboschalter (2FA-markiert) (RNA, riboswitch, 2-fluoroadenine at 16, 17 and 24) GGCUGCUUGUCCUUUAAUGGUCCAGCC; assay: 19F NMR CEST; conditions: 303 K; derived from kex = [L]kon + koff = 88 ± 8 s^-1; subsaturating ligand

| Compound | binding [1] | koff [2] |
| --- | --- | --- |
| NC[C@@H]1O[C@H](O[C@H]2[C@@H](O)[C@H](O[C@@H]3[C@@H](O)[C@H](N)C[C@H](N)[C@H]3O[C@H]3O[C@H](CN)[C@@H](O)[C@H](O)[C@H]3N)O[C@@H]2CO)[C@H](N)[C@@H](O)[C@@H]1O | yes | – |
| NC[C@H]1O[C@H](O[C@H]2[C@H](O[C@@H]3O[C@H](CO)[C@@H](O)[C@H]3O)[C@@H](O)[C@H](N)C[C@@H]2N)[C@H](N)[C@@H](O)[C@@H]1O | – | ~ 1.4 s^-1 |
